From US7041694B1, “Cyclooxygenase-2 inhibition” (Cornell Research Foundation, Inc., priority 1997, dated 2006)

Legend:
[1] = system: patient with alcoholic hepatitis; test: Treatment of a patient with alcoholic hepatitis (Example I); format: in vivo; settings: 6 mg/kg oral, daily; at the end of three weeks
Procedure: A patient with alcoholic hepatitis is admitted to a hospital complaining of nausea and upper abdominal pain. Liver function test results are total bilirubin of 4.0 mg/dl, direct bilirubin of 3.1 mg/dl, ALT of 100 IU/L, AST of 120 IU/L and prothrombin time of 15.1 seconds.
At the end of three weeks, the nausea and upper abdominal pain have resolved. Each of the blood tests has improved.

[2] = system: patient with autoimmune hepatitis; test: Treatment of a patient with autoimmune hepatitis (Example II); format: in vivo; settings: 6 mg/kg oral for two months
Procedure: The patient is a person with new onset nausea, loss of appetite and right upper quadrant tenderness. They are noted to have elevated liver chemistries. Serologic workup is notable for positive antinuclear and antismooth muscle antibodies. They are considered to have autoimmune hepatitis. Liver biopsy is consistent with this diagnosis. […] The patient is subsequently maintained on an oral dose of 6 mg/kg of the same drug.

Row | Compound | blood tests (liver function tests: total bilirubin, direct bilirubin, ALT, AST, prothrombin time) [1] | nausea and upper abdominal pain [1] | symptoms (nausea, loss of appetite, right upper quadrant tenderness) [2]
1 | NS(=O)(=O)c1ccc(-n2nc(C(F)(F)F)cc2-c2ccc(Cl)cc2)cc1 [4-[5-(4-Chlorophenyl)-3-(trifluoromethyl)-1H-pyrazol-1-yl]benzenesulfonamide] | improved | resolved | resolution of symptoms
2 | Cc1ccc(-c2cc(C(F)(F)F)nn2-c2ccc(S(N)(=O)=O)cc2)cc1 [4-[5-(4-Methylphenyl)-3-(trifluoromethyl)-1H-pyrazol-1-yl]benzenesulfonamide] | same result | – | –
